The compounds below were run against T1, Endothelin-1 receptor (Homo sapiens, UniProt P25101) (assay: not given). Details: cho-k1.
T1 sequence (P25101 whole entry): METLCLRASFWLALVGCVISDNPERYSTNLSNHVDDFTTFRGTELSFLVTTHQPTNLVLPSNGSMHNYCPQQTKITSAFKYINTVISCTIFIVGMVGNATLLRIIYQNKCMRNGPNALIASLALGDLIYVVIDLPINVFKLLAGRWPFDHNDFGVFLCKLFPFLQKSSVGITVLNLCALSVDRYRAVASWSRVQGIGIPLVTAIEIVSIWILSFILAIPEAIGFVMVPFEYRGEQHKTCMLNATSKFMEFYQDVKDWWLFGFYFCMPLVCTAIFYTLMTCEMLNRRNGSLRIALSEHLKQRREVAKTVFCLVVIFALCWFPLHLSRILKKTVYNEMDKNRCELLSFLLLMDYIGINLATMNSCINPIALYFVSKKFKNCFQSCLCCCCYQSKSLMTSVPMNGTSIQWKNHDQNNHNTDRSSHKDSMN
Type: cell membranes, Membrane
Throughout, for Ki: in other assays of this panel Not Active means under 50% inhibition at 10 µM.

Structure (SMILES)	IC50
Oc1ccc2c3c1O[C@H]1[C@@H](O)CC[C@@]4(O)[C@@H](C2)N(CC2CCC2)CC[C@]314 [NALBUPHINE]	Not Active
C[C@]12C=CC(=O)C=C1CC[C@@H]1[C@@H]2C(=O)C[C@@]2(C)[C@H]1CC[C@]2(O)C(=O)CO [PREDNISONE]	Not Active
OCCOCCN1CCN(C2=Nc3ccccc3Sc3ccccc32)CC1 [QUETIAPINE]	Not Active
COC(=O)[C@H]1[C@H]2C[C@@H]3c4[nH]c5cc(OC)ccc5c4CCN3C[C@H]2C[C@@H](OC(=O)c2cc(OC)c(OC)c(OC)c2)[C@@H]1OC [RESERPINE]	Not Active
O=C(O)c1ccccc1O [SALICYLIC ACID]	Not Active

The compounds below were run against Glycine receptor (Rattus norvegicus, UniProt P22771+P24524+P07727+P20781) (assay: not given). Details: not given.
Type: cell membranes, Wistar, Spinal cord, Membrane

Structure (SMILES)	IC50
Oc1ccc2c3c1O[C@H]1[C@@H](O)CC[C@@]4(O)[C@@H](C2)N(CC2CCC2)CC[C@]314 [NALBUPHINE]	Not Active
C[C@]12C=CC(=O)C=C1CC[C@@H]1[C@@H]2C(=O)C[C@@]2(C)[C@H]1CC[C@]2(O)C(=O)CO [PREDNISONE]	Not Active
OCCOCCN1CCN(C2=Nc3ccccc3Sc3ccccc32)CC1 [QUETIAPINE]	Not Active
COC(=O)[C@H]1[C@H]2C[C@@H]3c4[nH]c5cc(OC)ccc5c4CCN3C[C@H]2C[C@@H](OC(=O)c2cc(OC)c(OC)c(OC)c2)[C@@H]1OC [RESERPINE]	Not Active
O=C(O)c1ccccc1O [SALICYLIC ACID]	Not Active

Each compound was assayed against T2, 3-hydroxy-3-methylglutaryl-coenzyme A reductase (Homo sapiens, UniProt P04035) (assay: not given). Details: not given.
T2 sequence (P04035 whole entry): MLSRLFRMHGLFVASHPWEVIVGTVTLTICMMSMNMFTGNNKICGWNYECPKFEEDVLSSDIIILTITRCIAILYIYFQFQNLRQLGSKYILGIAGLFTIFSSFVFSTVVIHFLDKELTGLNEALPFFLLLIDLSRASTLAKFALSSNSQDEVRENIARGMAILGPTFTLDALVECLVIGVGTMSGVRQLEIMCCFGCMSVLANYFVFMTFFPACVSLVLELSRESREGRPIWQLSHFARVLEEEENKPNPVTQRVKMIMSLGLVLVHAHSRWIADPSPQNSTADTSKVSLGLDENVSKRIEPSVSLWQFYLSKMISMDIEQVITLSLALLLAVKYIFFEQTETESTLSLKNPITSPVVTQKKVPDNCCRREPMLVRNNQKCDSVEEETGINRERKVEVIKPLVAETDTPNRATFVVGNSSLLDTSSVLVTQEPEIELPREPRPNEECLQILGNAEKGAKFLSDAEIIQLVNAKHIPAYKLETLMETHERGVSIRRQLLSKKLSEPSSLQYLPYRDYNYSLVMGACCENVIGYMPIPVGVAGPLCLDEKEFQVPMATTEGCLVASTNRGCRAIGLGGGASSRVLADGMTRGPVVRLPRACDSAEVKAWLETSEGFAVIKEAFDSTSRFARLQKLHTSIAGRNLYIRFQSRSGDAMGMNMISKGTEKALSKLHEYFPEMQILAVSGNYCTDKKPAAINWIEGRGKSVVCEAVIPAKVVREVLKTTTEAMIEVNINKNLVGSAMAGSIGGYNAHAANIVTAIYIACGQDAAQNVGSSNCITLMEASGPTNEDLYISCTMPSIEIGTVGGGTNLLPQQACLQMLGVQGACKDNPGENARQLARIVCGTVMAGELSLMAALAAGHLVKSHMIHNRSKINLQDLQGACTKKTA
Set-up: species or system Escherichia coli

Structure (SMILES)	IC50
Oc1ccc2c3c1O[C@H]1[C@@H](O)CC[C@@]4(O)[C@@H](C2)N(CC2CCC2)CC[C@]314 [NALBUPHINE]	Not Active
C[C@]12C=CC(=O)C=C1CC[C@@H]1[C@@H]2C(=O)C[C@@]2(C)[C@H]1CC[C@]2(O)C(=O)CO [PREDNISONE]	Not Active
OCCOCCN1CCN(C2=Nc3ccccc3Sc3ccccc32)CC1 [QUETIAPINE]	Not Active
COC(=O)[C@H]1[C@H]2C[C@@H]3c4[nH]c5cc(OC)ccc5c4CCN3C[C@H]2C[C@@H](OC(=O)c2cc(OC)c(OC)c(OC)c2)[C@@H]1OC [RESERPINE]	Not Active
O=C(O)c1ccccc1O [SALICYLIC ACID]	Not Active

These compounds were tested against T3, Polyunsaturated fatty acid lipoxygenase ALOX15 (Oryctolagus cuniculus, UniProt P12530) (assay: biochemical). Details: reticulocytes.
T3 sequence (P12530 whole entry): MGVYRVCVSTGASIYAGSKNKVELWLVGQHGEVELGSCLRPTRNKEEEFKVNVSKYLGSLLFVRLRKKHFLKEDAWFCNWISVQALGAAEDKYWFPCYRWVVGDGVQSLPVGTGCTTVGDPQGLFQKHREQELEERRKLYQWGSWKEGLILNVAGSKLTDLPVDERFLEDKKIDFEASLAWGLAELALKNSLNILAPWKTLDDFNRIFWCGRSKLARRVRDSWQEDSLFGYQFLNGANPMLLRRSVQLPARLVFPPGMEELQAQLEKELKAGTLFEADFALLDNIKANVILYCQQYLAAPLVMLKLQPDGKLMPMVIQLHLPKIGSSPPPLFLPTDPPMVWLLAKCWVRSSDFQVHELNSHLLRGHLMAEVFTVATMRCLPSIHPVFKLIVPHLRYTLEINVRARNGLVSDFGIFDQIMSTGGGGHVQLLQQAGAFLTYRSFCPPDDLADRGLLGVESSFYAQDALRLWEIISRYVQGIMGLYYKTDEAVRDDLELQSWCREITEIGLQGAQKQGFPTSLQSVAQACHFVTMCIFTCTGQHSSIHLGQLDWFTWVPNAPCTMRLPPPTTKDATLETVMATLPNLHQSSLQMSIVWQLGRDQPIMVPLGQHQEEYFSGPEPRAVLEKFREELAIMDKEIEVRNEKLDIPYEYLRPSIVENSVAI
Type: tissue-based, Reticulocytes

Structure (SMILES)	IC50
Oc1ccc2c3c1O[C@H]1[C@@H](O)CC[C@@]4(O)[C@@H](C2)N(CC2CCC2)CC[C@]314 [NALBUPHINE]	Not Active
C[C@]12C=CC(=O)C=C1CC[C@@H]1[C@@H]2C(=O)C[C@@]2(C)[C@H]1CC[C@]2(O)C(=O)CO [PREDNISONE]	Not Active
OCCOCCN1CCN(C2=Nc3ccccc3Sc3ccccc32)CC1 [QUETIAPINE]	Not Active
COC(=O)[C@H]1[C@H]2C[C@@H]3c4[nH]c5cc(OC)ccc5c4CCN3C[C@H]2C[C@@H](OC(=O)c2cc(OC)c(OC)c(OC)c2)[C@@H]1OC [RESERPINE]	Not Active
O=C(O)c1ccccc1O [SALICYLIC ACID]	Not Active

What follows are compounds tested against T4, Muscarinic acetylcholine receptor M4 (Homo sapiens, UniProt P08173) (assay: not given). Details: cho-k1.
T4 sequence (P08173 whole entry): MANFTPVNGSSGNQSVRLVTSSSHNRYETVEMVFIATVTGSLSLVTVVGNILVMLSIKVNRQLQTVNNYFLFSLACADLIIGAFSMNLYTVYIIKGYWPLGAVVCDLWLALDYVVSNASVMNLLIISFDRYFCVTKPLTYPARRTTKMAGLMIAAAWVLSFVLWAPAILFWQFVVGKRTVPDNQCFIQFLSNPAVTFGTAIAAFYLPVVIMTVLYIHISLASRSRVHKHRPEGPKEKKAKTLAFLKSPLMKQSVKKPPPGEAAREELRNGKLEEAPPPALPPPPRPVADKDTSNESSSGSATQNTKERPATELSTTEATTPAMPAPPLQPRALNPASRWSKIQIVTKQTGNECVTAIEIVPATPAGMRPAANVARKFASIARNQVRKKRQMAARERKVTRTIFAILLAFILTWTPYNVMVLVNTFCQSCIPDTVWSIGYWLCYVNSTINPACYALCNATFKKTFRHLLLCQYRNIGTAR
Type: cell membranes, CHO-K1, Membrane

Structure (SMILES)	IC50
Oc1ccc2c3c1O[C@H]1[C@@H](O)CC[C@@]4(O)[C@@H](C2)N(CC2CCC2)CC[C@]314 [NALBUPHINE]	Not Active
C[C@]12C=CC(=O)C=C1CC[C@@H]1[C@@H]2C(=O)C[C@@]2(C)[C@H]1CC[C@]2(O)C(=O)CO [PREDNISONE]	Not Active
COC(=O)[C@H]1[C@H]2C[C@@H]3c4[nH]c5cc(OC)ccc5c4CCN3C[C@H]2C[C@@H](OC(=O)c2cc(OC)c(OC)c(OC)c2)[C@@H]1OC [RESERPINE]	Not Active
O=C(O)c1ccccc1O [SALICYLIC ACID]	Not Active

The compounds below were run against Epidermal growth factor receptor (Homo sapiens, UniProt P00533) (assay: DRUGMATRIX: Protein Tyrosine Kinase, EGF Receptor enzyme inhibition (substrate: Poly(Glu:Tyr))). Details: insect cells; Not Active = under 50% inhibition at 10 µM.
Epidermal growth factor receptor, sequence (P00533 whole entry): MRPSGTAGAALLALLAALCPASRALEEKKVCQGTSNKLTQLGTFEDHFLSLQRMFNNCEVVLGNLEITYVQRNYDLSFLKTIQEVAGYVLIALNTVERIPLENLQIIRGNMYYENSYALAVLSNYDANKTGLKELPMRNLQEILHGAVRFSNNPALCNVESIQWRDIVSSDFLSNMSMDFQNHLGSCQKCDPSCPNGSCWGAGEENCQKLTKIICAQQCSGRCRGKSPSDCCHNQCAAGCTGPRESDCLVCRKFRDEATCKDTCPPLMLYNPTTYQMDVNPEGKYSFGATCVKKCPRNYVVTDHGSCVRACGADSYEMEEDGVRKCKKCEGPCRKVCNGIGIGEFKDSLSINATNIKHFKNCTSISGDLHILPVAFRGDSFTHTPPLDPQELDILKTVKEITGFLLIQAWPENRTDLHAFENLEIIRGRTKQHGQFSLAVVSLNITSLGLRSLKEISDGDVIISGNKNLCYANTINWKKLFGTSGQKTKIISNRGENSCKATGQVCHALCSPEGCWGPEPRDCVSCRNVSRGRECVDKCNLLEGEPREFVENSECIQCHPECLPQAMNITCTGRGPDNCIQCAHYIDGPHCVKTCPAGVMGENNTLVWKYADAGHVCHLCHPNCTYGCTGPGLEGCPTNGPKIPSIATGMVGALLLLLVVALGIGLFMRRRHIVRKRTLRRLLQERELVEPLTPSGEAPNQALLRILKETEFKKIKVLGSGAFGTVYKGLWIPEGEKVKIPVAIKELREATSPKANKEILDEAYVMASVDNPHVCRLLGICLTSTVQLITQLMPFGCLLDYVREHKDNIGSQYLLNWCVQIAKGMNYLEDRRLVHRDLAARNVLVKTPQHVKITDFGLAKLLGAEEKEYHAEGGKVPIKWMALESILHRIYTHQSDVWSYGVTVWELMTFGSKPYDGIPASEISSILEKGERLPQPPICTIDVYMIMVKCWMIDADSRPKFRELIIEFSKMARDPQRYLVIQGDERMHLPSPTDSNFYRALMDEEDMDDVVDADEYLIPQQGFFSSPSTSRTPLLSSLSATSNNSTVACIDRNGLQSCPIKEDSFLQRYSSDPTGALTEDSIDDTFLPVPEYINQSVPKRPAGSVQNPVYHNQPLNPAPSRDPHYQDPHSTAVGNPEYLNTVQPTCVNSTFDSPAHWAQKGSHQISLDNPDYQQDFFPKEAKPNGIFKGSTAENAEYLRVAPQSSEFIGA
Type: cell-based, Insect cells

Structure (SMILES)	IC50
Oc1ccc2c3c1O[C@H]1[C@@H](O)CC[C@@]4(O)[C@@H](C2)N(CC2CCC2)CC[C@]314 [NALBUPHINE]	Not Active
C[C@]12C=CC(=O)C=C1CC[C@@H]1[C@@H]2C(=O)C[C@@]2(C)[C@H]1CC[C@]2(O)C(=O)CO [PREDNISONE]	Not Active
OCCOCCN1CCN(C2=Nc3ccccc3Sc3ccccc32)CC1 [QUETIAPINE]	Not Active
COC(=O)[C@H]1[C@H]2C[C@@H]3c4[nH]c5cc(OC)ccc5c4CCN3C[C@H]2C[C@@H](OC(=O)c2cc(OC)c(OC)c(OC)c2)[C@@H]1OC [RESERPINE]	Not Active
O=C(O)c1ccccc1O [SALICYLIC ACID]	Not Active

These compounds were tested against Cytochrome P450 3A4 (Homo sapiens, UniProt P08684) (assay: not given). Details: bti-tn-5b1-4.
Cytochrome P450 3A4, sequence (P08684 whole entry): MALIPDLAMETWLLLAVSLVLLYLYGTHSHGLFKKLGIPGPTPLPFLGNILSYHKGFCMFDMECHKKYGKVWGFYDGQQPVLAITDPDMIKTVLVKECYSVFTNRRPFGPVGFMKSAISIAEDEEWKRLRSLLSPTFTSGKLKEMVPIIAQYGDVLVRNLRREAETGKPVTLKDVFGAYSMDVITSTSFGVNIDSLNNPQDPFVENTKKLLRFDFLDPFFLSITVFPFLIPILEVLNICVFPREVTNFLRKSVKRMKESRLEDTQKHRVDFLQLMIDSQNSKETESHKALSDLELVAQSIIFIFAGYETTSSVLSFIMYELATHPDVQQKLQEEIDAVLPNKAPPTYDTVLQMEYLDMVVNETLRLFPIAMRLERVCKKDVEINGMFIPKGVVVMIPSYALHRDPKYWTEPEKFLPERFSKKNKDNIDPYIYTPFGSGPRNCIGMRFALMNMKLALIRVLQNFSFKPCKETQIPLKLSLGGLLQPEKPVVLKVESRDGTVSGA

Structure (SMILES)	IC50	Ki
OCCOCCN1CCN(C2=Nc3ccccc3Sc3ccccc32)CC1 [QUETIAPINE]	Not Active	Not Active
COC(=O)[C@H]1[C@H]2C[C@@H]3c4[nH]c5cc(OC)ccc5c4CCN3C[C@H]2C[C@@H](OC(=O)c2cc(OC)c(OC)c(OC)c2)[C@@H]1OC [RESERPINE]	Not Active	Not Active
O=C(O)c1ccccc1O [SALICYLIC ACID]	Not Active	Not Active
